30 compounds from US10323000B2, “Indole derivatives and their use in neurodegenerative diseases” (priority 2014, dated 2019) can be followed below.

SMILES strings stand for the structures. Like-named read-outs stand apart in the source and are kept apart here. Some results are limits rather than exact numbers.

The target in one experiment is human P2X7 receptor (Homo sapiens (Human), UniProt Q99572). The experiment in a line: Pore permeation assay (YO PRO dye uptake). Type of experiment: cell-based.
Chain of human P2X7 receptor (Q99572 whole entry): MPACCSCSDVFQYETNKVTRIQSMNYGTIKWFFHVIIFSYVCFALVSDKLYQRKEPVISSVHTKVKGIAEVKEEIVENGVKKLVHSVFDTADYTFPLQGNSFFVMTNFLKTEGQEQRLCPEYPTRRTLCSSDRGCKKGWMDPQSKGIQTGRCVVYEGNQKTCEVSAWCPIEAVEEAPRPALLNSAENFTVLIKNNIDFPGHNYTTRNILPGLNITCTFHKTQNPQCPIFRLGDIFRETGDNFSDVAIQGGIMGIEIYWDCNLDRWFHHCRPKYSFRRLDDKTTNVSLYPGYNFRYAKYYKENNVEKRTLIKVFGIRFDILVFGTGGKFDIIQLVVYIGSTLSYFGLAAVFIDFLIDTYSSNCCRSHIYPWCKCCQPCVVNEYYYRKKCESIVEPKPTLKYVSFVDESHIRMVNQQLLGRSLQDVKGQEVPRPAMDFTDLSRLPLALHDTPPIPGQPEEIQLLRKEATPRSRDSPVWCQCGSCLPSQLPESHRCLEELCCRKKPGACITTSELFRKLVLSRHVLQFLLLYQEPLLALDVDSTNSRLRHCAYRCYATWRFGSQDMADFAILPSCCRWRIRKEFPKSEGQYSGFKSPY
Experiment [1] has as its target P2X7 (IL-1β release from THP-1 cells) (Homo sapiens (Human), UniProt Q99572). The experiment in a line: IL-1β release assay. Type of experiment: cell-based. In outline: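 THP-1 cells were differentiated with PMA 0.5 μM and primed 4 h with LPS 10 ng/ml. They were then pre-incubated 20 min with compound at 37° C and stimulated 30 min with BzATP 0.8 mM. Mature IL-1β released into the supernatant was quantified by sandwich ELISA.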

Chain of P2X7 (IL-1β release from THP-1 cells) (Q99572 whole entry): as above

With `O=C(NCC1(O)CCCC(F)(F)C1)c1cn(C2CCNC2)c2cccc(Cl)c12` (stereo not drawn) [Compound 120, 4-chloro-N-((3,3-difluoro-1-hydroxycyclohexyl)methyl)-1-(pyrrolidin-3-yl)-1H-indole-3-carboxamide], the IC50 (at human P2X7 receptor; in experiment [1]) was 10 to 100 nM each time.

With `O=C(NCC1CCC(F)(F)CC1)c1cn(C2CCNC2)c2cccc(Cl)c12` (stereo not drawn) [Compound 121, 4-chloro-N-((4,4-difluorocyclohexyl)methyl)-1-(pyrrolidin-3-yl)-1H-indole-3-carboxamide], the IC50 (at human P2X7 receptor; in experiment [1]) was 10 to 100 nM each time.

Turning to `O=C(NCC1CCC(F)(F)CC1)c1cn(C[C@@H]2CCN2)c2cccc(Cl)c12` [Compound 122, (S)-1-(azetidin-2-ylmethyl)-4-chloro-N-((4,4-difluorocyclohexyl)methyl)-1H-indole-3-carboxamide], the IC50 (at human P2X7 receptor; in experiment [1]) was 10 to 100 nM each time.

As for `O=C(NCC1CCC(F)(F)CC1)c1cn(C[C@H]2CCN2)c2cccc(Cl)c12` [Compound 123, (R)-1-(azetidin-2-ylmethyl)-4-chloro-N-((4,4-difluorocyclohexyl)methyl)-1H-indole-3-carboxamide], the IC50 (against human P2X7 receptor; in experiment [1]) was 101 to 500 nM each time.

With `O=C(NCC1(O)CCCC(F)(F)C1)c1cn(CC2CCN2)c2cccc(Cl)c12` (stereo not drawn) [Compound 124, 1-(azetidin-2-ylmethyl)-4-chloro-N-((3,3-difluoro-1-hydroxycyclohexyl)methyl)-1H-indole-3-carboxamide], the IC50 (against human P2X7 receptor; in experiment [1]) was 10 to 100 nM in each case.

For the compound `O=C(NCC1(O)CCCC(F)(F)C1)c1cn(CC2CNC2)c2cccc(Cl)c12` (stereo not drawn) [Compound 125], the IC50 (against human P2X7 receptor; in experiment [1]) was 10 to 100 nM throughout.

On to `O=C1NC[C@H](Cn2cc(C(=O)NCC3CCC(F)(F)CC3)c3c(Cl)cccc32)O1` [Compound 126, (R)-4-chloro-N-((4,4-difluorocyclohexyl)methyl)-1-((2-oxooxazolidin-5-yl)methyl)-1H-indole-3-carboxamide], for which the IC50 (on human P2X7 receptor; in experiment [1]) was 10 to 100 nM each time.

As for `O=C(NCC1CCC(F)(F)CC1)c1cn(CC2CC(F)(F)C2)c2cccc(Cl)c12` [Compound 127, 4-chloro-1-((3,3-difluorocyclobutyl)methyl)-N-((4,4-difluorocyclohexyl)methyl)-1H-indole-3-carboxamide], the IC50 is 10 to 100 nM on human P2X7 receptor and 500 to 999 nM in experiment [1].

In the case of `CC(C)OCCn1cc(C(=O)NCC2CCC(F)(F)CC2)c2c(Cl)cccc21` [Compound 128], the IC50 (against human P2X7 receptor; in experiment [1]) was 101 to 500 nM each time.

As to `O=C(NC[C@@]1(O)CCCC(F)(F)C1)c1cn(C[C@@H]2CCCO2)c2cccc(Cl)c12` [Compound 129], the IC50 against human P2X7 receptor lay in the range of 101 to 500 nM; in experiment [1] it was 500 to 999 nM.

`O=C(NC[C@]1(O)CCCC(F)(F)C1)c1cn(C[C@@H]2CCCO2)c2cccc(Cl)c12` [Compound 130, 4-chloro-N—(((S)-3,3-difluoro-1-hydroxycyclohexyl)methyl)-1-(((S)-tetrahydrofuran-2-yl)methyl)-1H-indole-3-carboxamide]: the IC50 (on human P2X7 receptor; in experiment [1]) was 10 to 100 nM throughout.

For `O=C(NCC1(O)CCC(F)(F)CC1)c1cn(C[C@H]2CCCO2)c2cccc(Cl)c12` [Compound 131, (R)-4-chloro-N-((4,4-difluoro-1-hydroxycyclohexyl)methyl)-1-((tetrahydrofuran-2-yl)methyl)-1H-indole-3-carboxamide], the IC50 (against human P2X7 receptor; in experiment [1]) was 10 to 100 nM throughout.

Consider `O=C(NCC1CCC(F)(F)CC1)c1cn(C[C@@H]2CCCO2)c2cccc(Cl)c12` [Compound 132, (S)-4-chloro-N-((4,4-difluorocyclohexyl)methyl)-1-((tetrahydrofuran-2-yl)methyl)-1H-indole-3-carboxamide], for which the IC50 (on human P2X7 receptor; in experiment [1]) was 10 to 100 nM in each case.

`O=C(NCC1(O)CCCC(F)(F)C1)c1cn(C[C@H]2CCCO2)c2cccc(Cl)c12` (stereo partly drawn) [Compound 133, 4-chloro-N-((3,3-difluoro-1-hydroxycyclohexyl)methyl)-1-(((R)-tetrahydrofuran-2-yl)methyl)-1H-indole-3-carboxamide]: the IC50 (against human P2X7 receptor; in experiment [1]) was 10 to 100 nM each time.

For the compound `O=C(NCC1(O)CCC(F)(F)CC1)c1cn(C[C@@H]2CCCO2)c2cccc(Cl)c12` [Compound 134, (S)-4-chloro-N-((4,4-difluoro-1-hydroxycyclohexyl)methyl)-1-((tetra hydrofuran-2-yl)methyl)-1H-indole-3-carboxamide], the results for the IC50 (at human P2X7 receptor; in experiment [1]) were 10 to 100 nM and 101 to 500 nM, respectively.

As to `O=C(NCC1CCC(F)(F)CC1)c1cn(C[C@H]2CCCO2)c2cccc(Cl)c12` [Compound 135, (R)-4-chloro-N-((4,4-difluorocyclohexyl)methyl)-1-((tetrahydrofuran-2-yl)methyl)-1H-indole-3-carboxamide], the IC50 (at human P2X7 receptor; in experiment [1]) was 10 to 100 nM throughout.

For the compound `CCC1CCCC(O)(CNC(=O)c2cn(CC3CCCO3)c3cccc(Cl)c23)C1` (stereo not drawn) [Compound 137, 4-chloro-N-((3-ethyl-1-hydroxycyclohexyl)methyl)-1-((tetrahydrofuran-2-yl)methyl)-1H-indole-3-carboxamide], the IC50 was 101 to 500 nM at human P2X7 receptor and above 1000 nM in experiment [1] (THP-1 cells, LPS primed, 0.8 mM BzATP, mature IL-1β by sandwich ELISA, read-out: hTHP-1/IL-ib IC50).

`CC1CC(F)(F)CC(O)(CNC(=O)c2cn(CC3CCCO3)c3cccc(Cl)c23)C1` (stereo not drawn) [Compound 138, 4-chloro-N-((3,3-difluoro-1-hydroxy-5-methylcyclohexyl)methyl)-1-((tetrahydrofuran-2-yl)methyl)-1H-indole-3-carboxamide]: the IC50 (at human P2X7 receptor; in experiment [1]) was 101 to 500 nM in each case.

Turning to `O=C(NCC1(O)CCCC(F)(F)C1)c1cn(CC2CCCO2)c2cccc(Cl)c12` (stereo not drawn) [Compound 139, 4-chloro-N-((3,3-difluoro-1-hydroxycyclohexyl)methyl)-1-((tetrahydrofuran-2-yl)methyl)-1H-indole-3-carboxamide], the IC50 (on human P2X7 receptor; in experiment [1]) was 10 to 100 nM each time.

With `C[C@H]1CCC[C@@](O)(CNC(=O)c2cn(CC3CCCO3)c3cccc(Cl)c23)C1` (stereo partly drawn) [Compound 140, 4-chloro-N-(((1S,3S)-1-hydroxy-3-methylcyclohexyl)methyl)-1-((tetrahydrofuran-2-yl)methyl)-1H-indole-3-carboxamide], the IC50 (against human P2X7 receptor; in experiment [1]) was 10 to 100 nM in each case.

As to `O=C(NCC1CC(C(F)(F)F)CC(F)(F)C1)c1cn(CC2CCCO2)c2cccc(Cl)c12` (stereo not drawn) [Compound 141, 4-chloro-N-((3,3-difluoro-5-(trifluoromethyl)cyclo-hexyl)methyl)-1-((tetrahydrofuran-2-yl)methyl)-1H-indole-3-carboxamide], the IC50 (against human P2X7 receptor; in experiment [1]) was 10 to 100 nM in each case.

Consider `O=C(NCC1(O)CCC(F)(F)CC1)c1cn(CC2CCCO2)c2cccc(Cl)c12` (stereo not drawn) [Compound 142, 4-chloro-N-((4,4-difluoro-1-hydroxycyclohexyl)methyl)-1-((tetrahydrofuran-2-yl)methyl)-1H-indole-3-carboxamide], for which the IC50 lay in the range of 10 to 100 nM against human P2X7 receptor and 101 to 500 nM in experiment [1].

Consider `C[C@@H]1CCC[C@](O)(CNC(=O)c2cn(CC3CCCO3)c3cccc(Cl)c23)C1` (stereo partly drawn) [Compound 143, 4-chloro-N-(((1R,3R)-1-hydroxy-3-methylcyclohexyl)methyl)-1-((tetrahydrofuran-2-yl)methyl)-1H-indole-3-carboxamide], for which the IC50 at human P2X7 receptor was 10 to 100 nM; in experiment [1], 101 to 500 nM.

On to `O=C(NCC1CCC(F)(F)CC1)c1cn(CC2CCCO2)c2cccc(Cl)c12` (stereo not drawn) [Compound 144, 4-chloro-N-((4,4-difluorocyclohexyl)methyl)-1-((tetrahydrofuran-2-yl)methyl)-1H-indole-3-carboxamide], for which the IC50 lay within 10 to 100 nM on human P2X7 receptor and 101 to 500 nM in experiment [1].

Regarding `O=C(NCC1(O)CCCC(F)(F)C1)c1cn(CC2CCOC2)c2cccc(Cl)c12` (stereo not drawn) [Compound 146, 4-chloro-N-((3,3-difluoro-1-hydroxycyclohexyl)methyl)-1-((tetrahydrofuran-3-yl)methyl)-1H-indole-3-carboxamide], the IC50 (on human P2X7 receptor; in experiment [1]) was 10 to 100 nM in each case.

As for `O=C(NCC1(O)CCC(F)(F)CC1)c1cn(CC2CCOC2)c2cccc(Cl)c12` (stereo not drawn) [Compound 147, 4-chloro-N-((4,4-difluoro-1-hydroxycyclohexyl)methyl)-1-((tetrahydrofuran-3-yl)methyl)-1H-indole-3-carboxamide], the IC50 (against human P2X7 receptor; in experiment [1]) was 10 to 100 nM throughout.

For the compound `O=C(NCC1CCC(F)(F)CC1)c1cn(CC2CCOC2)c2cccc(Cl)c12` (stereo not drawn) [Compound 148, 4-chloro-N-((4,4-difluorocyclohexyl)methyl)-1-((tetrahydrofuran-3-yl)methyl)-1H-indole-3-carboxamide], the IC50 (on human P2X7 receptor; in experiment [1]) was 10 to 100 nM throughout.

Consider `O=C(NCC1CCC(F)(F)CC1)c1cn(CCOC2CC2)c2cccc(Cl)c12` [Compound 149, 4-chloro-1-(2-cyclopropoxyethyl)-N-((4,4-difluorocyclohexyl)methyl)-1H-indole-3-carboxamide], for which the IC50 against human P2X7 receptor was in the range of 10 to 100 nM; in experiment [1], 101 to 500 nM.

For the compound `O=C(NCC1CCC(F)(F)CC1)c1cn(CC2COCCO2)c2cccc(Cl)c12` (stereo not drawn) [Compound 150, 1-((1,4-dioxan-2-yl)methyl)-4-chloro-N-((4,4-difluorocyclohexyl)methyl)-1H-indole-3-carboxamide], the IC50 (at human P2X7 receptor; in experiment [1]) was 10 to 100 nM in each case.

In the case of `CN1CC[C@H]1Cn1cc(C(=O)NCC2CCC(F)(F)CC2)c2c(Cl)cccc21` [Compound 151, (S)-4-chloro-N-((4,4-difluorocyclohexyl)methyl)-1-((1-methylazetidin-2-yl)methyl)-1H-indole-3-carboxamide], the IC50 (on human P2X7 receptor; in experiment [1]) was 10 to 100 nM each time.
